Measurements as given in patent US8236984B2, “Compound and use thereof in the treatment of amyloidosis” (Pentraxin Therapeutics Ltd., priority 2007, dated 2012).
“Also recorded” adds a separate entry of the source.

Assays:
[1] = biological target: T1, wild type transthyretin isolated from plasma (Homo sapiens, UniProt P02766); assay: Competition with 125I-T4 for binding by pure transthyretin; settings: 125 nM transthyretin, trace 125I-T4, pH 8.0, overnight 4° C.
T1 construct: Native tetrameric transthyretin was purified from fractionated human plasma; from tissue; host or cells: human plasma

wild type transthyretin [2] = biological target: T2, wild type transthyretin (Homo sapiens, UniProt P02766); assay: Displacement of 125I-T4 from transthyretin in whole serum; format: binding; settings: mean
Text: 3.2.3.2. Quantitative studies in serum. […] The immunoprecipitate was recovered by centrifugation, washed twice with 0.1 M Tris, 0.1 M NaCl, pH 8.0 and counted.

V30M transthyretin = biological target: T3, V30M transthyretin (Homo sapiens, UniProt P02766, V50M); assay: Mass spectrometric analysis of ligand dissociation under increasing cone voltage; format: binding; settings: equimolar 4.4 μM with wild type, 2 fold excess of ligand
T3 construct: made in house
Text: (§1) 4.3. Mass spectrometric analysis of dissociation of 4ajm15 from wild type and amyloidogenic variant transthyretin. ESMS spectra were acquired under increasing cone voltage conditions to induce stepwise dissociation of the ligand from wild type transthyretin and amyloidogenic variants V30M and L55P transthyretin. As the cone voltage increases splitting becomes apparent in the tetramer peaks, corresponding to apo (protein alone) and holo (protein+ligand) transthyretin as ligand begins to dissociate.
The onset of ligand dissociation from V30M transthyretin occurs at the same energy level but the peak height corresponding to apo V30M transthyretin is lower than that for wild type (FIG. 17). Since these two species have very similar amino acid sequences (and therefore similar charging during MS ionisation) they are able to act as internal standards for each other. Therefore a lower peak height for apo V30M compared to apo WT is indicative of a lower proportion of apo V30M than apo WT. At increasing energy levels apo V30M is consistently lower relative to apo WT and as ligand dissociation from WT is complete, a proportion of holo V30M is still present.
V30M transthyretin and [^15N, ^13C] wild type transthyretin in a 2 fold excess of ligand. […]

L55P transthyretin = biological target: T4, L55P transthyretin (Homo sapiens, UniProt P02766, L75P); assay: as above; format: binding; settings: equimolar 4.4 μM with wild type, 2 fold excess of ligand
T4 construct: made in house
Text: as §1
L55P transthyretin and [^15N, ^13C] wild type transthyretin in a 2 fold excess of 4ajm15. […] In spectrum β the onset of 4ajm15 dissociation from wild type tetramer is observed (a) while no ligand dissociation is observed from L55P transthyretin. Dissociation from wild type transthyretin progresses with increasing collisional energy in spectrum γ, but it is not until spectrum δ, where approximately 50% of the wild type is apo, that ligand dissociation from L55P transthyretin is observed (a).

wild type transthyretin [3] = biological target: T2, wild type transthyretin; assay: Inhibition of transthyretin aggregation at acidic pH (turbidity at 400 nm); format: biochemical; parameters: isolated from pooled normal human plasma, was obtained from Scipac; purchased Scipac Ltd, Sittingbourne, Kent, UK; host or cells: pooled normal human plasma; settings: pH 4.4, 3 d 37° C.
Description: 3.3.1 Wild type transthyretin. The purified wild type transthyretin (liquid and lyophilised) used in these experiments, isolated from pooled normal human plasma, was obtained from Scipac, (Sittingbourne, Kent, UK). Protein concentration was determined by absorbance at 280 nm after correction for light scattering at 320 nm using the absorption coefficient E1 cm^1%=14.0. […] Nano electrospray ionisation mass spectrometry confirmed the presence of normal and cysteinylated transthyretin monomers (Terazaki et al, 1998) under denaturing conditions, and solvent-bound transthyretin tetramer (Nettleton et al, 1998) under mild desolvation conditions.
3.3.2 Inhibition of transthyretin aggregation by 4ajm15: In pilot experiments, transthyretin aggregates were formed from wild type transthyretin (3.6 μM) after incubation at acidic pH for 3 d at 37° C. (Colon and Kelly, 1992). The efficacy of 4ajm15 as an inhibitor of transthyretin aggregate formation was then compared with other transthyretin ligand compounds. […] After 30 min at 37° C., the pH was adjusted to pH 4.4 (with 0.2 M sodium acetate buffer pH 4.0), and the ˜1 ml mixtures were incubated unstirred for 3 d at 37° C.
Using the same method the activities of mds84 and 4ajm15 as inhibitors of the aggregation of both wild type transthyretin and the most aggressively aggregating transthyretin variant, L55P, were evaluated in triplicate with both proteins at 3.6 μM and with one (3.6 μM) or 3 equivalents (10.8 μM) of each ligand. Wild type transthyretin was studied at pH 4.4 and L55P at pH 5.0. […] Mean values and standard deviations are shown in Table 2 and in FIG. 4, where results with 1:1 molar ratio are shown cross hatched and 3:1 molar ratio in open bars.

wild type transthyretin [4] = biological target: T2, wild type transthyretin; assay: Differential scanning calorimetry of transthyretin with ligand; format: binding; parameters: isolated from pooled normal human plasma, was obtained from Scipac; purchased Scipac Ltd, Sittingbourne, Kent, UK; host or cells: pooled normal human plasma
[5] = five fold molar excess of ligand

Row | IC50 [1] | IC50 (wild type transthyretin [2]) | peak height of apo V30M transthyretin at onset of dissociation (spectrum β) (V30M transthyretin) | proportion of wild type that is apo when dissociation from L55P is first observed (spectrum δ) (L55P transthyretin) | midpoint of thermal denaturation (Tm) in the presence of ligand (wild type transthyretin [4]; preliminary DSC, 0.02 mM tetramer, 0.2 mM ligand, PBS pH 7.4, 2% DMSO, transthyretin alone 99.5) | Aggregation of transthyretin, Mean (1:1) (wild type transthyretin [3]; wild type 3.6 μM, ligand 3.6 μM) | Aggregation of transthyretin, Mean (3:1) (wild type transthyretin [3]; wild type 3.6 μM, ligand 10.8 μM) | Tm of wild type transthyretin with the ligand (wild type transthyretin [4]; [5]) | increase in Tm of wild type transthyretin (wild type transthyretin [4]; [5]) | Compound | dissociation of ligand from L55P transthyretin (L55P transthyretin) | transthyretin aggregate formation in the presence of ligand (wild type transthyretin [3]; wild type, in words)
1 | 0.2 ± 0.07 µM | 27 µM | ~45% | approximately 50% | 103.6 °C |  |  |  |  | O=C(O)c1ccccc1Nc1cc(Cl)c(OCCCCCCCCCCCOc2c(Cl)cc(Nc3ccccc3C(=O)O)cc2Cl)c(Cl)c1 [4ajm15, 2,2′-(4,4′-(undecane-1,11-diylbis(oxy))bis(3,5-dichloro-4,1-phenylene))bis(azanediyl)dibenzoic acid] | only at higher collisional energy than wild type | dramatically reduced; also recorded: identical to those with mds84
2 | 0.15 ± 0.025 µM | 11.9 µM |  |  |  | 1.7 per cent of control with DMSO alone | 2 per cent of control with DMSO alone | 107.5 °C | 6.2 °C | O=C(O)c1ccccc1Nc1cc(Cl)c(OCCCCCCCOc2c(Cl)cc(Nc3ccccc3C(=O)O)cc2Cl)c(Cl)c1 [mds84, 2,2′-(4,4′-(heptane-1,7-diylbis(oxy))bis(3,5-dichloro-4,1-phenylene))bis(azanediyl)dibenzoic acid] |  | 
